In ChEMBL document CHEMBL1138365, “Application of 3D-QSAR for identification of descriptors defining bioactivity of antimicrobial peptides” (2007):
Values after ≈ are worked out from the molar mass of the structure shown.

system: Staphylococcus aureus; experiment: Antibacterial activity against Staphylococcus aureus; assay type: functional

SMILES | MIC
CC(C)C[C@@H](NC(=O)CNC(=O)[C@H](CCCCN)NC(=O)CN)C(=O)N1Cc2ccccc2C[C@H]1C(=O)N1CC2CCCCC2[C@H]1C(=O)NCC(=O)N[C@@H](CCCNC(=N)N)C(=O)N1Cc2ccccc2C[C@H]1C(=O)N1CC2CCCCC2[C@H]1C(=O)NCC(=O)N[C@@H](Cc1ccccc1)C(=O)N1Cc2ccccc2C[C@H]1C(=O)N1CC2CCCCC2[C@H]1C(=O)NCC(=O)N[C@@H](CCCNC(=N)N)C(=O)N1Cc2ccccc2C[C@H]1C(=O)N1CC2CCCCC2[C@H]1C(=O)NCC(=O)N[C@@H](Cc1ccccc1)C(=O)N1Cc2ccccc2C[C@H]1C(=O)N1CC2CCCCC2[C@H]1C(=O)NCC(=O)N[C@@H](CCCNC(=N)N)C(=O)N1Cc2ccccc2C[C@H]1C(=O)N1CC2CCCCC2[C@H]1C(=O)NCC(=O)N[C@@H](CCCCN)C(=O)N[C@@H](CCCNC(=N)N)C(N)=O (some centres undefined) | 10 µM (≈ 36.2 µg/mL)
CC(C)C[C@H](NC(=O)CNC(=O)[C@@H]1C2CCCCC2CN1C(=O)[C@@H]1Cc2ccccc2CN1C(=O)[C@H](CC(C)C)NC(=O)CNC(=O)[C@@H]1C2CCCCC2CN1C(=O)[C@@H]1Cc2ccccc2CN1C(=O)[C@H](CCCCN)NC(=O)CNC(=O)[C@@H]1C2CCCCC2CN1C(=O)[C@@H]1Cc2ccccc2CN1C(=O)[C@H](CC(C)C)NC(=O)CNC(=O)[C@@H]1C2CCCCC2CN1C(=O)[C@@H]1Cc2ccccc2CN1C(=O)[C@H](CCCCN)NC(=O)CNC(=O)[C@@H]1C2CCCCC2CN1C(=O)[C@@H]1Cc2ccccc2CN1C(=O)[C@H](CC(C)C)NC(=O)CNC(=O)[C@@H]1C2CCCCC2CN1C(=O)[C@@H]1Cc2ccccc2CN1C(=O)[C@@H](CC(C)C)NC(=O)CNC(=O)[C@H](CCCCN)NC(=O)CN)C(=O)N[C@@H](CCCNC(=N)N)C(N)=O (some centres undefined) | 100 µM (≈ 344 µg/mL)
CC(C)C[C@H](NC(=O)CNC(=O)[C@@H]1C2CCCCC2CN1C(=O)[C@@H]1Cc2ccccc2CN1C(=O)[C@H](CCCCN)NC(=O)CNC(=O)[C@@H]1C2CCCCC2CN1C(=O)[C@@H]1Cc2ccccc2CN1C(=O)[C@H](CC(C)C)NC(=O)CNC(=O)[C@@H]1C2CCCCC2CN1C(=O)[C@@H]1Cc2ccccc2CN1C(=O)[C@H](CCCCN)NC(=O)CNC(=O)[C@@H]1C2CCCCC2CN1C(=O)[C@@H]1Cc2ccccc2CN1C(=O)[C@@H](CC(C)C)NC(=O)CNC(=O)[C@H](CCCCN)NC(=O)CN)C(=O)N1Cc2ccccc2C[C@H]1C(=O)N1CC2CCCCC2[C@H]1C(=O)NCC(=O)N[C@@H](CCCCN)C(=O)N1Cc2ccccc2C[C@H]1C(=O)N1CC2CCCCC2[C@H]1C(=O)NCC(=O)N[C@@H](CCCCN)C(=O)N[C@@H](CCCNC(=N)N)C(N)=O (some centres undefined) | 10 µM (≈ 34.7 µg/mL)
CC(C)C[C@H](NC(=O)CNC(=O)[C@H](CCCCN)NC(=O)CN)C(=O)N1Cc2ccccc2C[C@H]1C(=O)N1CC2CCCCC2[C@H]1C(=O)N[C@H](Cc1ccccc1)C(=O)N[C@H](CCCCN)C(=O)N1Cc2ccccc2C[C@@H]1C(=O)N1CC2CCCCC2[C@H]1C(=O)N[C@H](CCCCN)C(=O)N[C@H](Cc1ccccc1)C(=O)N1Cc2ccccc2C[C@H]1C(=O)N1CC2CCCCC2[C@@H]1C(=O)N[C@H](Cc1ccccc1)C(=O)N[C@H](CCCCN)C(=O)N1Cc2ccccc2C[C@@H]1C(=O)N1CC2CCCCC2[C@H]1C(=O)N[C@@H](CCCCN)C(=O)N[C@@H](Cc1ccccc1)C(=O)N1Cc2ccccc2C[C@@H]1C(=O)N1CC2CCCCC2[C@H]1C(=O)N[C@H](Cc1ccccc1)C(=O)N[C@H](CCCCN)C(=O)N1Cc2ccccc2C[C@@H]1C(=O)N1CC2CCCCC2[C@@H]1C(=O)N[C@H](Cc1ccccc1)C(=O)N[C@@H](CCCCN)C(=O)N[C@@H](CCCNC(=N)N)C(N)=O (some centres undefined) | 30 µM (≈ 121 µg/mL)
